Where “and” joins values, the source holds several entries; their conditions need not be identical. Equal entries are not always repeated.
How the values were obtained:
NF-κB p65 Phospho-Ser536 = test: NanoBiT cell-based immunoassay, phosphorylated p65 in MCF-7 cells; parameters: species or system human; details: for P-p65, Average: background subtracted, average of replicates; for P-p65, Raw data / P-p65, Subtract reagent background: single replicates
Experimental: (§1) Prior to NanoBiT Cell-Based Immunoassay, 50,000 cells were seeded in 160 µl of complete growth media per well of a 96-well plate and incubated overnight. The cells were checked under microscope and it was determined that 50,000 cells per well in 96-well plate is under 90% confluency for all cells tested. If necessary, the cell culture media were replaced with serum-free media after the cells were stably adherent on the plate and incubated overnight. To treat cells with activators or inhibitors, medium was changed to 30 µl of medium containing inhibitors. If activation of a specific pathway is needed, the cells were stimulated with 10 µl of medium containing activators. To lyse the cells, 10 µl of lysis buffer containing 0.1% digitonin diluted in 1X immunoassay buffer with protease and phosphatase inhibitors was added and the plates were mixed vigorously for 20 min. Then, 50 µl of an antibody mix containing two primary antibodies against the target protein and NanoBiT detecting antibodies (0.3 µl each per well), diluted in 1X immunoassay buffer was added to the lysates. The plates were incubated at 23 °C for 90 min, followed by the addition of 25 µl of Nano-Glo® reagent consisting of Nano-Glo® Luciferase Assay Substrate mixed with 1X immunoassay buffer. Luminescence was measured using a plate-reading luminometer.
(§2) Single dose or dose response inhibitor treatments were performed prior to activation of the pathways as follows. For IκBα, the cells were treated in 30 µl medium with IKK16 or MG132 for 60 min before the addition of 10 µl of DMEM containing appropriate concentration of TNFα. To measure phosphorylation of AKT or STAT3, the corresponding NanoBiT immunoassays were developed with MCF-7 or A431 cells, respectively, according the same scheme used to develop the IκBα assay using the primary antibodies for AKT and STAT3 described in the reagents section. For the AKT assay, MCF-7 cells were incubated overnight in phenol-red free DMEM medium (Gibco #21063-029) without serum. Treatment with LY294002 was performed in 30 µl medium and cells were incubated for 60 min before the addition of 1 µM Insulin. To measure STAT3 phosphorylation, A431 cells were incubated overnight in DMEM medium without serum. […] After addition of the stimulators, the cells were incubated for additional times as follows. IκBα phosphorylation and degradation analyses required both time courses and single time points as described in figures. […] The NanoBiT immunoassay protocol was followed as described above.
(§3) All 96-well assay plates were read using a GloMax® 96 Microplate Luminometer from Promega. The instrument was set to 0.5 s integration time. In order to obtain net change of signal, the reagent background values (signal from the well containing all reagent except primary antibodies) were subtracted from the sample values. To plot and analyze the data, Microsoft Excel and GraphPad Prism® Software were used. IC50 values were determined by using a nonlinear regression fit to a sigmoidal dose response (variable slope).

total IκBα = test: NanoBiT cell-based immunoassay, total IκBα in human primary mammary epithelial cells; details: for Total IkB Average: background subtracted; for Total IkB Raw data / Total IkB Subtract reagent background: listed as TNF
Experimental: All cell lines used are from ATCC. […] Human Primary Mammary Epithelial Cells (#H-6035), Human Breast Tumor Epithelial Cells (#HC-6035), Complete Human Epithelial Cell Medium (#H6621), and Gelatin-Based Coating Solution (#H6950) were purchased from Cell Biologics. The cells were cultured according to the manufacturer’s procedure. All cells were grown at 37 °C in a 5% CO2 humidified incubator and passaged before reaching 80% cell confluency. Prior to each experiment, cells were counted by combining 30 µl of cell suspension with 30 µl of trypan blue. After gentle pipetting up and down to mix the cells and the dye, the cell number was determined using Bio-Rad TC 20 cell counter.
as §1, §2, §3

Compound: O=C(c1ccc(Nc2nccc(-c3cc4ccccc4s3)n2)cc1)N1CCC(N2CCCC2)CC1 [IKK16]
- TNFα-increased phosphorylation of p65 on serine 536 (NF-κB p65 Phospho-Ser536; MCF-7 cells, 10 µM 1 h, TNFα 50 ng per ml 10 min): inhibited
- P-p65, Average (NF-κB p65 Phospho-Ser536; TNF + Ikk16): 4467
- P-p65, Raw data (NF-κB p65 Phospho-Ser536; TNF + Ikk16): 22920 and 23320 and 23680
- P-p65, Subtract reagent background (NF-κB p65 Phospho-Ser536; TNF + Ikk16): 4080 and 4480 and 4840
- P-p65, Average (NF-κB p65 Phospho-Ser536; substance alone): 3920
- P-p65, Raw data (NF-κB p65 Phospho-Ser536; substance alone): 22430 and 21780 and 21730
- P-p65, Subtract reagent background (NF-κB p65 Phospho-Ser536; substance alone): 4370 and 3720 and 3670

Compound: TNFα
- Total IkB Average (total IκBα; TNF 2 min): 18292
- Total IkB Raw data (total IκBα; TNF 2 min): 29190 and 27950 and 27350
- Total IkB Subtract reagent background (total IκBα; TNF 2 min): 19319 and 18079 and 17479
- Total IkB Average (total IκBα; TNF 4 min): 16139
- Total IkB Raw data (total IκBα; TNF 4 min): 26330 and 26760 and 24940
- Total IkB Subtract reagent background (total IκBα; TNF 4 min): 16459 and 16889 and 15069
- Total IkB Average (total IκBα; TNF 6 min): 13185
- Total IkB Raw data (total IκBα; TNF 6 min): 23190 and 23370 and 22610
- Total IkB Subtract reagent background (total IκBα; TNF 6 min): 13319 and 13499 and 12739
- Total IkB Average (total IκBα; TNF 8 min): 9145
- Total IkB Raw data (total IκBα; TNF 8 min): 19430 and 18940 and 18680
- Total IkB Subtract reagent background (total IκBα; TNF 8 min): 9559 and 9069 and 8809
- Total IkB Average (total IκBα; TNF 10 min): 6539
- Total IkB Raw data (total IκBα; TNF 10 min): 16860 and 16350 and 16020
- Total IkB Subtract reagent background (total IκBα; TNF 10 min): 6989 and 6479 and 6149
- Total IkB Average (total IκBα; TNF 12 min): 4795
- Total IkB Raw data (total IκBα; TNF 12 min): 14910 and 14630 and 14460
- Total IkB Subtract reagent background (total IκBα; TNF 12 min): 5039 and 4759 and 4589
- Total IkB Average (total IκBα; TNF 15 min): 3099
- Total IkB Raw data (total IκBα; TNF 15 min): 13120 and 12980 and 12810
- Total IkB Subtract reagent background (total IκBα; TNF 15 min): 3249 and 3109 and 2939
- Total IkB Average (total IκBα; TNF 30 min): 3035
- Total IkB Raw data (total IκBα; TNF 30 min): 13030 and 12940 and 12750
- Total IkB Subtract reagent background (total IκBα; TNF 30 min): 3159 and 3069 and 2879
- Total IkB Average (total IκBα; TNF 45 min): 5225
- Total IkB Raw data (total IκBα; TNF 45 min): 15670 and 15120 and 14500
- Total IkB Subtract reagent background (total IκBα; TNF 45 min): 5799 and 5249 and 4629
- Total IkB Average (total IκBα; TNF 60 min): 7062
- Total IkB Raw data (total IκBα; TNF 60 min): 16790 and 17170 and 16840
- Total IkB Subtract reagent background (total IκBα; TNF 60 min): 6919 and 7299 and 6969
- P-p65, Average (NF-κB p65 Phospho-Ser536; substance alone): 154463
- P-p65, Raw data (NF-κB p65 Phospho-Ser536; substance alone, listed as TNF): 167400 and 177100 and 183300
- P-p65, Subtract reagent background (NF-κB p65 Phospho-Ser536; substance alone, listed as TNF): 145930 and 155630 and 161830
